Reference: patent US6723364B1, “Fog treatment method using a liquid composition for treating fruits and vegetables and implementing device” (Xeda International, priority 1998, dated 2004)
≈ marks a conversion by molar mass, not a printed value. Like-named read-outs stand apart in the source and are kept apart here.

What was measured:
Format in all cases: cell-based
[1] = system: Alternaria alternata; experiment: Fungicidal activity in vitro: mycelial growth on Cristomalt agar; conditions: for Inhibition grades: MIC expressed on the scale of Table 2; for MIC: Alternaria alternata, read-out: MIC (content giving complete inhibition of mycelial growth)
Protocol: (§1) The Cristomalt medium used for the evaluations of the fungicidal activities comprises 0.1% of Cristomalt (malt extract) and 0.2% of agar.
(§2) This culture medium is, after sterilization, brought to 55° C. The terpene compound tested is then introduced in the pure form into the culture medium under warm conditions. Immediately after agitating, the medium, enriched with the terpene product, is poured into Petri dishes (diameter 9 cm, filled with 20 ml of medium). The agar-comprising medium solidifies on cooling. The Petri dishes are then inoculated with plugs, with a diameter of 6 mm, withdrawn from the edge of a culture of the tested fungus, which culture is obtained on Cristomalt medium.
(§3) Inoculation is carried out at 22° C.
(§4) The mycelial growth was determined periodically (5 to 15 days, according to the species of fungus).
(§5) The results are expressed in Table 3 below in terms of MIC, which is the content (in μg/ml) which makes it possible to obtain complete inhibition of mycelial growth.
(§6) In f act, each experiment was carried out several times, so that, for each terpene and for each species of fungus, a minimum value and a maximum value were obtained.

[2] = system: Botrytis cinerea; experiment: as above; conditions: for Inhibition grades: MIC expressed on the scale of Table 2; for MIC: Botrytis cinerea, read-out: MIC (content giving complete inhibition of mycelial growth)
Protocol: as §1, §2, §3, §4, §5, §6

[3] = system: Fusarium oxysporum; experiment: as above; conditions: for MIC: Fusarium oxysporum, read-out: MIC (content giving complete inhibition of mycelial growth); for Inhibition grades: OF, MIC expressed on the scale of Table 2
Protocol: as §1, §2, §3, §4, §5, §6

[4] = system: Geocrichum candidum; experiment: as above; conditions: for Inhibition grades: MIC expressed on the scale of Table 2; for MIC: read-out: MIC (content giving complete inhibition of mycelial growth)
Protocol: as §1, §2, §3, §4, §5, §6

[5] = system: Gliocladium roseum; experiment: as above; conditions: for MIC: Clonostachys rosea, read-out: MIC (content giving complete inhibition of mycelial growth); for Inhibition grades: MIC expressed on the scale of Table 2
Protocol: as §1, §2, §3, §4, §5, §6

[6] = system: Penicillium digitatum; experiment: as above; conditions: for Inhibition grades: MIC expressed on the scale of Table 2; for MIC: Penicillium digitatum, read-out: MIC (content giving complete inhibition of mycelial growth)
Protocol: as §1, §2, §3, §4, §5, §6

[7] = system: Penicillium expansum; experiment: as above; conditions: for Inhibition grades: MIC expressed on the scale of Table 2; for MIC: Penicillium expansum, read-out: MIC (content giving complete inhibition of mycelial growth)
Protocol: as §1, §2, §3, §4, §5, §6

[8] = system: Phlyctaena vagabonda (“Gloeosporium”); experiment: as above; conditions: for Inhibition grades: MIC expressed on the scale of Table 2; for MIC: read-out: MIC (content giving complete inhibition of mycelial growth)
Protocol: as §1, §2, §3, §4, §5, §6

[9] = system: Phytophtora parasitica; experiment: as above; conditions: for Inhibition grades: MIC expressed on the scale of Table 2; for MIC: read-out: MIC (content giving complete inhibition of mycelial growth)
Protocol: as §1, §2, §3, §4, §5, §6

[10] = system: spores; experiment: Germination of the spores in vitro, summary over the fungi tested; conditions: summary of Tables 4 to 6
Protocol: The activity of eugenol and of isoeugenol on the germination of the spores was evaluated in vitro and compared with that of other terpenes.
The procedure of Example 4 is used to do this, except that the concentration of eugenol and of isoeugenol was set at x μg/ml in the culture media used and that 50 μl of a suspension of spores, adjusted to 100,000 spores/ml, are deposited in each Petri dish.
The same experiment was carried out starting with a terpene-free culture medium (control test).
The results obtained for 3 different concentrations of terpenes in the culture medium, namely 40 μg/ml, 80 μg/ml and 1280 μg/ml, are listed in Tables 4, 5 and 6.
A concentration of 40 μg/ml is sufficient to inhibit the germination of the spores.

[11] = AA, min-max range of several experiments, 22° C.
[12] = BC, min-max range of several experiments, 22° C.
[13] = FO, min-max range of several experiments, 22° C.
[14] = GC, min-max range of several experiments, 22° C.
[15] = GR, min-max range of several experiments, 22° C.
[16] = PD, min-max range of several experiments, 22° C.
[17] = PE, min-max range of several experiments, 22° C.
[18] = PV, min-max range of several experiments, 22° C.
[19] = PhP, min-max range of several experiments, 22° C.

## C=C(C)C1CC=C(C)C(=O)C1 (centres unmarked) [CARVONE, carvone]
[1]; AA
  Inhibition grades: 6 (40-80)
[1]; [11]
  MIC: 40 to 80 µg/mL (≈ 266 to 533 µM)
[2]; BC
  Inhibition grades: 7 (20-40)
[2]; [12]
  MIC: 20 to 40 µg/mL (≈ 133 to 266 µM)
[3]; [13]
  MIC: 40 to 80 µg/mL (≈ 266 to 533 µM)
[3]
  Inhibition grades: 6 (40-80)
[4]; GC
  Inhibition grades: 5 (80-160)
[4]; [14]
  MIC: 80 to 160 µg/mL (≈ 533 to 1070 µM)
[5]; [15]
  MIC: 40 to 80 µg/mL (≈ 266 to 533 µM)
[5]; GR
  Inhibition grades: 6 (40-80)
[6]; PD
  Inhibition grades: 6 (40-80)
[6]; [16]
  MIC: 40 to 80 µg/mL (≈ 266 to 533 µM)
[7]; PE
  Inhibition grades: 5 (80-160)
[7]; [17]
  MIC: 80 to 160 µg/mL (≈ 533 to 1070 µM)
[8]; PV
  Inhibition grades: 5 (80-160)
[8]; [18]
  MIC: 80 to 160 µg/mL (≈ 533 to 1070 µM)
[9]; PhP
  Inhibition grades: 6 (40-80)
[9]; [19]
  MIC: 40 to 80 µg/mL (≈ 266 to 533 µM)

## CC12CCC(CC1)C(C)(C)O2 [EUCALYPTOL, eucalyptol]
[1]; AA
  Inhibition grades: 1 (>1280)
[1]; [11]
  MIC: > 1280 µg/mL
[2]; BC
  Inhibition grades: 2 (640-1280)
[2]; [12]
  MIC: 640 to 1280 µg/mL (≈ 4150 to 8300 µM)
[3]; [13]
  MIC: 640 to 1280 µg/mL (≈ 4150 to 8300 µM)
[3]
  Inhibition grades: 2 (640-1280)
[4]; GC
  Inhibition grades: 3 (320-640)
[4]; [14]
  MIC: 320 to 640 µg/mL (≈ 2070 to 4150 µM)
[5]; [15]
  MIC: 320 to 640 µg/mL (≈ 2070 to 4150 µM)
[5]; GR
  Inhibition grades: 3 (320-640)
[6]; PD
  Inhibition grades: 1 (>1280)
[6]; [16]
  MIC: > 1280 µg/mL
[7]; PE
  Inhibition grades: 1 (>1280)
[7]; [17]
  MIC: > 1280 µg/mL
[8]; PV
  Inhibition grades: 4 (160-320)
[8]; [18]
  MIC: 160 to 320 µg/mL (≈ 1040 to 2070 µM)
[9]; PhP
  Inhibition grades: 3 (320-640)
[9]; [19]
  MIC: 320 to 640 µg/mL (≈ 2070 to 4150 µM)

## C=CCc1ccc(O)c(OC)c1 [EUGENOL, eugenol]
[1]; AA
  Inhibition grades: 7 (20-40)
[1]; [11]
  MIC: 20 to 40 µg/mL (≈ 122 to 244 µM)
[2]; BC
  Inhibition grades: 7 (20-40)
[2]; [12]
  MIC: 20 to 40 µg/mL (≈ 122 to 244 µM)
[3]; [13]
  MIC: 20 to 40 µg/mL (≈ 122 to 244 µM)
[3]
  Inhibition grades: 7 (20-40)
[4]; GC
  Inhibition grades: 8 (10-20)
[4]; [14]
  MIC: 10 to 20 µg/mL (≈ 60.9 to 122 µM)
[5]; [15]
  MIC: 20 to 40 µg/mL (≈ 122 to 244 µM)
[5]; GR
  Inhibition grades: 7 (20-40)
[6]; PD
  Inhibition grades: 7 (20-40)
[6]; [16]
  MIC: 20 to 40 µg/mL (≈ 122 to 244 µM)
[7]; PE
  Inhibition grades: 7 (20-40)
[7]; [17]
  MIC: 20 to 40 µg/mL (≈ 122 to 244 µM)
[8]; PV
  Inhibition grades: 6 (40-80)
[8]; [18]
  MIC: 40 to 80 µg/mL (≈ 244 to 487 µM)
[9]; PhP
  Inhibition grades: 7 (20-40)
[9]; [19]
  MIC: 20 to 40 µg/mL (≈ 122 to 244 µM)
[10]
  concentration sufficient to inhibit the germination of the spores: 40 µg/mL

## CC=Cc1ccc(O)c(OC)c1 [ISOEUGENOL, isoeugenol]
[1]; AA
  Inhibition grades: 7 (20-40)
[1]; [11]
  MIC: 20 to 40 µg/mL (≈ 122 to 244 µM)
[2]; BC
  Inhibition grades: 7 (20-40)
[2]; [12]
  MIC: 20 to 40 µg/mL (≈ 122 to 244 µM)
[3]; [13]
  MIC: 20 to 40 µg/mL (≈ 122 to 244 µM)
[3]
  Inhibition grades: 7 (20-40)
[4]; GC
  Inhibition grades: 8 (10-20)
[4]; [14]
  MIC: 10 to 20 µg/mL (≈ 60.9 to 122 µM)
[5]; [15]
  MIC: 20 to 40 µg/mL (≈ 122 to 244 µM)
[5]; GR
  Inhibition grades: 7 (20-40)
[6]; PD
  Inhibition grades: 7 (20-40)
[6]; [16]
  MIC: 20 to 40 µg/mL (≈ 122 to 244 µM)
[7]; PE
  Inhibition grades: 7 (20-40)
[7]; [17]
  MIC: 20 to 40 µg/mL (≈ 122 to 244 µM)
[8]; PV
  Inhibition grades: 7 (20-40)
[8]; [18]
  MIC: 20 to 40 µg/mL (≈ 122 to 244 µM)
[9]; PhP
  Inhibition grades: 7 (20-40)
[9]; [19]
  MIC: 20 to 40 µg/mL (≈ 122 to 244 µM)
[10]
  concentration sufficient to inhibit the germination of the spores: 40 µg/mL

## C=CCc1ccc2c(c1)OCO2 [SAFROLE, safrole]
[1]; AA
  Inhibition grades: 5 (80-160)
[1]
  MIC: 80 to 160 µg/mL (≈ 493 to 987 µM)
[2]; BC
  Inhibition grades: 5 (80-160)
[2]
  MIC: 80 to 160 µg/mL (≈ 493 to 987 µM)
[3]
  MIC: 80 to 160 µg/mL (≈ 493 to 987 µM)
  Inhibition grades: 5 (80-160)
[4]; GC
  Inhibition grades: 4 (160-320)
[4]
  MIC: 160 to 230 µg/mL (≈ 987 to 1420 µM)
[5]
  MIC: 40 to 80 µg/mL (≈ 247 to 493 µM)
[5]; GR
  Inhibition grades: 6 (40-80)
[6]; PD
  Inhibition grades: 4 (160-320)
[6]
  MIC: 160 to 230 µg/mL (≈ 987 to 1420 µM)
[7]; PE
  Inhibition grades: 2 (640-1280)
[7]
  MIC: 640 to 1280 µg/mL (≈ 3950 to 7890 µM)
[8]; PV
  Inhibition grades: 5 (80-160)
[8]
  MIC: 80 to 160 µg/mL (≈ 493 to 987 µM)
[9]; PhP
  Inhibition grades: 6 (40-80)
[9]
  MIC: 40 to 80 µg/mL (≈ 247 to 493 µM)
